One assay deals with MCF-7 cells. The assay can be described thus: Breast Cancer Cell Viability Assays (MCF-7, CellTiter-Glo). It counts as cell-based. The note with it: 5 days' compound exposure; for IC50: Homo sapiens, MCF7, 120 h. In short, it runs like this:
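MCF-7 cells (320/well, RPMI with 10% FBS) exposed for 5 days to an eleven-point semilog series, 0.3–0.000003 μM final. Viability read by CellTiter-Glo luminescence, expressed as background-corrected percent of untreated cells.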
On the technique in general: Cellular ATP, detected with luciferase, serves as a proxy for viable cell number.

A further assay concerns the target T1, ER-α in MCF-7 cells (Homo sapiens, UniProt P03372).
T1 construct: endogenous in cells; host or cells: MCF-7
T1 sequence (P03372 1-595): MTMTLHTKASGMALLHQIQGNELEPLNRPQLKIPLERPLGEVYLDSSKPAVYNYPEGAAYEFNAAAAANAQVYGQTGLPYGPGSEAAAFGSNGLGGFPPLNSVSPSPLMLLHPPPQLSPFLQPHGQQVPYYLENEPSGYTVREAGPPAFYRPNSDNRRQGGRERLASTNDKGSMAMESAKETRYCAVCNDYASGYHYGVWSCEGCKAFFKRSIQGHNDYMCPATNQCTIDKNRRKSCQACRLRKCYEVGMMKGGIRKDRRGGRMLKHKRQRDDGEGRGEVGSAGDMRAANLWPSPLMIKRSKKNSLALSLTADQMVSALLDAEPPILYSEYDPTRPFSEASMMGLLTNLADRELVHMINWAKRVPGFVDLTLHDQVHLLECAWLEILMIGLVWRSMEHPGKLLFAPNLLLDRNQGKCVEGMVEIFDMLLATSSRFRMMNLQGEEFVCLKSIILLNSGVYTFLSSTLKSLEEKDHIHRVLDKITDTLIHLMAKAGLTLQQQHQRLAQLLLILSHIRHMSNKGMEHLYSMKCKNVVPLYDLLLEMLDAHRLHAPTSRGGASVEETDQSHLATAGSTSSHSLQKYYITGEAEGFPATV
The assay can be described thus: Breast Cancer Cell ER-α In Cell Western Assay (SP1). It counts as cell-based. The note with it: 4 or 24 hr post compound addition; for Emax: MCF7, SP1 antibody, read-out: ER-α In Cell Western Assay (SP1) Max Response; for DC50: SP1 antibody, read-out: ER-α In Cell Western Assay (SP1) IC50. In outline: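 MCF-7 cells in charcoal-stripped FBS medium, treated with 11-point semilog dilutions (0.3–0.000003 μM final) for 4 or 24 h. Fixed cells immunostained with SP1 antibody (800 nm) and DRAQ5 DNA (700 nm); ER/DNA ratio expressed as % of untreated cells.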

In the case of `N#Cc1cc(F)ccc1/C(=C(\c1ccc(/C=C/C(=O)O)cc1)c1ccc2[nH]nc(F)c2c1)C1CCC1` [Example 49, (E)-3-(4-((E)-2-(2-Cyano-4-fluorophenyl)-2-cyclobutyl-1-(3-fluoro-1H-indazol-5-yl)vinyl)phenyl)acrylic acid], in the assay with MCF-7 cells, the “MCF7 Viability Assay Max Response” value is listed as “++ (++ = a single % value ≧ 40%)” and the half-inhibitory concentration (IC50) was at most 100 nM. At ER-α in MCF-7 cells, the Emax is at least 40% and the DC50 is at most 100 nM.

Regarding `Cc1cc(C#N)ccc1/C(=C(\c1ccc(/C=C/C(=O)O)cc1)c1ccc2[nH]nc(F)c2c1)C1CCC1` [Example 50, (E)-3-(4-((E)-2-(4-Cyano-2-methylphenyl)-2-cyclobutyl-1-(3-fluoro-1H-indazol-5-yl)vinyl)phenyl)acrylic acid], in the assay with MCF-7 cells, the “MCF7 Viability Assay Max Response” value was “++ (++ = a single % value ≧ 40%)” and the half-maximal inhibitory concentration (IC50) was at most 100 nM. On ER-α in MCF-7 cells, the Emax was at least 40% and the DC50 is at most 100 nM.

As for `CS(=O)(=O)c1ccc(/C(=C(\c2ccc(/C=C/C(=O)O)cc2)c2ccc3[nH]nc(F)c3c2)C2CCC2)c(F)c1` [Example 51, (E)-3-(4-((E)-2-Cyclobutyl-1-(3-fluoro-1H-indazol-5-yl)-2-(2-fluoro-4-(methylsulfonyl)phenyl)vinyl)phenyl)acrylic acid], in the assay on MCF-7 cells, the “MCF7 Viability Assay Max Response” value is listed as “++ (++ = a single % value ≧ 40%)” and the 50% inhibitory concentration (IC50) is at most 100 nM. In addition, at ER-α in MCF-7 cells, the Emax was at least 40% and the DC50 is at most 100 nM.

Take `O=C(O)/C=C/c1ccc(/C(=C(\c2ccncc2F)C2CCC2)c2ccc3[nH]nc(F)c3c2)cc1` [Example 52, (E)-3-(4-((E)-2-Cyclobutyl-1-(3-fluoro-1H-indazol-5-yl)-2-(3-fluoropyridin-4-yl)vinyl)phenyl)acrylic acid]: in the assay with MCF-7 cells, the “MCF7 Viability Assay Max Response” value is reported as “++ (++ = a single % value ≧ 40%)” and the IC50 is at most 100 nM. For the same compound, on ER-α in MCF-7 cells, the Emax is at least 40% and the DC50 was at most 100 nM.

For the compound `N#Cc1ccc(/C(=C(\c2ccc(/C=C/C(=O)O)cc2)c2ccc3[nH]ncc3c2)C2CCC2)c(F)c1` [Example 53, (E)-3-(4-((E)-2-(4-Cyano-2-fluorophenyl)-2-cyclobutyl-1-(1H-indazol-5-yl)vinyl)phenyl)acrylic acid], in the assay with MCF-7 cells, the “MCF7 Viability Assay Max Response” value was “++ (++ = a single % value ≧ 40%)” and the half-maximal inhibitory concentration (IC50) was at most 100 nM. On ER-α in MCF-7 cells, the Emax is at least 40% and the DC50 was at most 100 nM.

As to `N#Cc1cc(F)ccc1/C(=C(\c1ccc(/C=C/C(=O)O)cc1)c1ccc2[nH]ncc2c1)C1CCC1` [Example 54, (E)-3-(4-((E)-2-(2-Cyano-4-fluorophenyl)-2-cyclobutyl-1-(1H-indazol-5-yl)vinyl)phenyl)acrylic acid], in the assay with MCF-7 cells, the “MCF7 Viability Assay Max Response” value was “++ (++ = a single % value ≧ 40%)” and the IC50 was at most 100 nM. For the same compound, on ER-α in MCF-7 cells, the Emax was at least 40% and the DC50 is at most 100 nM.

With `Cc1cc(C#N)ccc1/C(=C(\c1ccc(/C=C/C(=O)O)cc1)c1ccc2[nH]ncc2c1)C1CCC1` [Example 55, (E)-3-(4-((E)-2-(4-Cyano-2-methylphenyl)-2-cyclobutyl-1-(1H-indazol-5-yl)vinyl)phenyl)acrylic acid], in the assay with MCF-7 cells, the “MCF7 Viability Assay Max Response” value was “++ (++ = a single % value ≧ 40%)” and the half-maximal inhibitory concentration (IC50) is at most 100 nM. At ER-α in MCF-7 cells, the Emax was at least 40% and the DC50 was at most 100 nM.

As to `CC/C(=C(/c1ccc(/C=C/C(=O)O)cc1)c1ccc2[nH]nc(F)c2c1)c1cccc(Oc2cncc(S(C)(=O)=O)n2)c1` [Example 56, (E)-3-(4-((E)-1-(3-Fluoro-1H-indazol-5-yl)-2-(3-((6-(methylsulfonyl)pyrazin-2-yl)oxy)phenyl)but-1-en-1-yl)phenyl)acrylic acid], in the assay on MCF-7 cells, the “MCF7 Viability Assay Max Response” value is recorded as “++ (++ = a single % value ≧ 40%)” and the IC50 was above 100 nM. At ER-α in MCF-7 cells, the Emax is at least 40% and the DC50 is at most 100 nM.

As to `CC/C(=C(/c1ccc(/C=C/C(=O)O)cc1)c1ccc2[nH]nc(F)c2c1)c1cccc(Oc2cnc(S(C)(=O)=O)cn2)c1` [Example 57, (E)-3-(4-((E)-1-(3-Fluoro-1H-indazol-5-yl)-2-(3-((5-(methylsulfonyl)pyrazin-2-yl)oxy)phenyl)but-1-en-1-yl)phenyl)acrylic acid], in the assay with MCF-7 cells, the “MCF7 Viability Assay Max Response” value is “++ (++ = a single % value ≧ 40%)” and the IC50 was at most 100 nM. For the same compound, at ER-α in MCF-7 cells, the Emax was at least 40% and the DC50 was at most 100 nM.

Regarding `CC/C(=C(/c1ccc(/C=C/C(=O)O)cc1)c1ccc2[nH]nc(F)c2c1)c1ccc(Oc2cncc(S(C)(=O)=O)n2)cc1` [Example 58, (E)-3-(4-((E)-1-(3-Fluoro-1H-indazol-5-yl)-2-(4-((6-(methylsulfonyl)pyrazin-2-yl)oxy)phenyl)but-1-en-1-yl)phenyl)acrylic acid], in the assay on MCF-7 cells, the “MCF7 Viability Assay Max Response” value is “++ (++ = a single % value ≧ 40%)” and the IC50 is above 100 nM. On ER-α in MCF-7 cells, the Emax was at least 40% and the DC50 is above 100 nM.

In the case of `CC/C(=C(/c1ccc(/C=C/C(=O)O)cc1)c1ccc2[nH]nc(F)c2c1)c1ccc(Oc2cnc(S(C)(=O)=O)cn2)cc1` [Example 59, (E)-3-(4-((E)-1-(3-Fluoro-1H-indazol-5-yl)-2-(4-((5-(methylsulfonyl)pyrazin-2-yl)oxy)phenyl)but-1-en-1-yl)phenyl)acrylic acid], in the assay on MCF-7 cells, the “MCF7 Viability Assay Max Response” value is “++ (++ = a single % value ≧ 40%)” and the IC50 is at most 100 nM. In addition, at ER-α in MCF-7 cells, the Emax was at least 40% and the DC50 is at most 100 nM.

`N#Cc1ccc(/C(=C(\c2ccc(/C=C/C(=O)O)cc2)c2ccc3[nH]ncc3c2F)C2CCC2)c(F)c1` [Example 60, (E)-3-(4-((E)-2-(4-Cyano-2-fluorophenyl)-2-cycobutyl-1-(4-fluoro-1H-indazol-5-yl)vinyl)phenyl)acrylic acid]: in the assay with MCF-7 cells, the “MCF7 Viability Assay Max Response” value is recorded as “++ (++ = a single % value ≧ 40%)” and the half-maximal inhibitory concentration (IC50) was at most 100 nM. At ER-α in MCF-7 cells, the Emax was at least 40% and the DC50 is at most 100 nM.

Turning to `N#Cc1cc(Cl)ccc1/C(=C(\c1ccc(/C=C/C(=O)O)cc1)c1ccc2[nH]ncc2c1F)C1CCC1` [Example 61, (E)-3-(4-((E)-2-(4-Chloro-2-cyanophenyl)-2-cyclobutyl-1-(4-fluoro-1H-indazol-5-yl)vinyl)phenyl)acrylic acid], in the assay on MCF-7 cells, the “MCF7 Viability Assay Max Response” value is listed as “++ (++ = a single % value ≧ 40%)” and the 50% inhibitory concentration (IC50) was at most 100 nM. Moreover, on ER-α in MCF-7 cells, the Emax is at least 40% and the DC50 was at most 100 nM.

With `N#Cc1ccc(/C(=C(\c2ccc(/C=C/C(=O)O)cc2)c2ccc3[nH]nc(F)c3c2)C2CCC2)c(C#N)c1` [Example 62, (E)-3-(4-((E)-2-Cyclobutyl-2-(2,4-dicyanophenyl)-1-(3-fluoro-1H-indazol-5-yl)vinyl)phenyl)acrylic acid], in the assay with MCF-7 cells, the “MCF7 Viability Assay Max Response” value is given as “++ (++ = a single % value ≧ 40%)” and the half-maximal inhibitory concentration (IC50) is at most 100 nM. Besides, at ER-α in MCF-7 cells, the Emax was at least 40% and the DC50 was at most 100 nM.

As to `CC/C(=C(/c1ccc(/C=C/C(=O)O)cc1)c1ccc2[nH]nc(F)c2c1)c1ccc(OC)cc1C` [Example 63, (E)-3-(4-((E)-1-(3-Fluoro-1H-indazol-5-yl)-2-(4-methoxy-2-methylphenyl)but-1-en-1-yl)phenyl)acrylic acid], in the assay on MCF-7 cells, the “MCF7 Viability Assay Max Response” value is recorded as “++ (++ = a single % value ≧ 40%)” and the half-maximal inhibitory concentration (IC50) was at most 100 nM. On ER-α in MCF-7 cells, the Emax is at least 40% and the DC50 is at most 100 nM.

On to `COc1ccc(/C(=C(\c2ccc(/C=C/C(=O)O)cc2)c2ccc3[nH]ncc3c2)C2CCC2)c(C)c1` [Example 64, (E)-3-(4-((E)-2-Cyclobutyl-1-(1H-indazol-5-yl)-2-(4-methoxy-2-methylphenyl)vinyl)phenyl)acrylic acid], for which, in the assay with MCF-7 cells, the “MCF7 Viability Assay Max Response” value is “++ (++ = a single % value ≧ 40%)” and the half-inhibitory concentration (IC50) is at most 100 nM. In addition, at ER-α in MCF-7 cells, the Emax was at least 40% and the DC50 was at most 100 nM.

With `COc1ccc(/C(=C(\c2ccc(/C=C/C(=O)O)cc2)c2ccc3[nH]nc(F)c3c2)C2CCC2)c(C)c1` [Example 65, (E)-3-(4-((E)-2-Cyclobutyl-1-(3-fluoro-1H-indazol-5-yl)-2-(4-methoxy-2-methylphenyl)vinyl)phenyl)acrylic acid], in the assay on MCF-7 cells, the “MCF7 Viability Assay Max Response” value was “++ (++ = a single % value ≧ 40%)” and the IC50 was at most 100 nM. Further, at ER-α in MCF-7 cells, the Emax was at least 40% and the DC50 was at most 100 nM.

A word on the IC50: it is the concentration needed to halve the response being measured.

The values above are taken from patent publication US9499538B2, “Estrogen receptor modulators and uses thereof” (Seragon Pharmaceuticals, Inc., priority 2012, dated 2016).
